The values that follow come from PMC3049581, “Development and evaluation of human AP endonuclease inhibitors in melanoma and glioma cell lines” (British Journal of Cancer, 2011).

Entries after “also recorded” stand apart in the source; their conditions may differ.

For one series, the target named is T1, E. coli endonuclease IV (Escherichia coli, UniProt P0A6C1).
T1 construct: purchased Trevigen
In words: Fluorescence-based endonuclease IV cleavage assay (counter-screen). Type of series: biochemical. The settings on record: tested at 100 μM. How it is done: (§1) A fluorescence-based AP site cleavage assay was performed as described previously with slight modifications ([Madhusudan et al, 2005]). Briefly, APE1 (50 nM) (New England Biolabs) was incubated in a buffer system consisting of 50 mM Tris-HCl, pH 8.0, 1 mM MgCl2, 50 mM NaCl, 2 mM DTT at 37°C for 10 min. 5′-F-GCCCCCXGGGGACGTACGATATCCCGCTCC-3′ and its complementary Q-labelled oligonucleotide (see above) were annealed in a buffer containing 100 μM Tris-HCl, 50 mM NaCl and 1 μM EDTA. AP-site cleavage was initiated by addition of the annealed substrate (25 nM) to the reaction mix. Fluorescence readings were taken at 5 min intervals during 30 min incubation at 37°C using an Envision Multilabel reader from Perkins Elmer (Cambridge, UK) with a 495 nm excitation and a 512 nm emission filter. If the DNA is cleaved at the abasic site at position 7 from the 5′-end by APE1, the 6-mer fluorescein-containing product will dissociate from its complement by thermal melting. As a result, the quenching effect of the 3′ dabcyl (which absorbs fluorescein fluorescence when in close proximity) is lost, and APE1 activity is measured indirectly as an increase in fluorescence signal (Figure 2A). Similar assays were developed for monitoring the AP endonuclease activity of endonuclease IV using a buffering system containing 10 mM HEPES-KOH, pH 7.4, 100 mM KCl and 60 ng of endonuclease IV (Trevigen, Abingdon, UK). The final DMSO concentration was maintained at 1.2% in all assays.
(§2) APE1 was incubated with the candidate inhibitors at 100 μM (final DMSO concentration, 1.2%) before initiating the AP site cleavage assay described in the previous section. […] In addition, screening of potential inhibitors for their specificity (at 100 μM concentration) was performed using endonuclease IV cleavage assays.
(In general: Counterscreens check selectivity or assay interference.)

In series [1] the target is T2, AP endonuclease activity of HeLa whole-cell extracts (WCE) (Homo sapiens, UniProt P27695).
T2 construct: incubated at 100 μM concentrations with 30 ng of HeLa WCE at room temperature; endogenous in cells; host or cells: HeLa whole-cell extract
The series can be described thus: Whole-cell extract AP-site cleavage assay. Type of series: biochemical. The settings on record: for inhibition at 100 µM: read-out: WCE Inhibition (whole-cell extracts AP site cleavage inhibition); for inhibition of AP site cleavage in WCE assay: HeLa WCE. As for the experimental part: The supernatant WCE was retained, the protein concentration determined using the Bio-Rad Bradford reagent, and aliquots were stored at −80°C. AP endonuclease activity assays using 18-mer radiolabelled oligonucleotide substrates (see above) were performed. In brief, all potential APE1 inhibitors were incubated at 100 μM concentrations with 30 ng of HeLa WCE at room temperature for 15 min in incision buffer consisting of 50 mM Tris-HCl, pH 8, 1 mM MgCl2, 50 mM NaCl and 2 mM DTT. After incubation, 0.5 pmol ^32P-radiolabeled THF-containing 18-mer double-stranded DNA substrate was added. […] The radiolabeled substrate and product were separated on a standard polyacrylamide-denaturing gel and quantified by phosphorimager analysis.

The target of another series is T3, Human APE1 (Homo sapiens, UniProt P27695).
T3 construct: purchased New England Biolabs
The series can be described thus: Fluorescence-based AP site cleavage assay. Type of series: biochemical. As to conditions: APE1 50 nM, wild type. How it is done: as §1, §2
To estimate IC50 for APE1 inhibition, the ability of the compounds to inhibit APE1 at a range of concentrations (10 nM–100 μM) were evaluated in black 384-well plates. The reactions were set up as before and fluorescence intensity was measured every 5 min for 30 min following reaction initiation. Using the initial rate values from the assay, percent activity was calculated for each sample relative to a negative DMSO only control. The data was fitted to a sigmoidal dose-response model using Graphpad Prism 3.0 (GraphPad Software, La Jolla, CA, USA) and IC50 values were determined using the formula: % Activity=100/(1+10^(log[I]−log IC 50)).

For series [2], the system named is melanoma and glioma cell lines. In words: MTS assay, potentiation of cytotoxic agents (other inhibitors, data not shown). The settings on record: relatively non-toxic inhibitor concentration. Type of series: cell-based. As for the experimental part: (§3) MeWo, SKMel and MM418 melanoma cancer cell line were grown in RPMI culture medium (supplemented with penicillin 0.06 g l^−1, streptomycin 0.1 g l^−1 pH 7.0, 10% foetal bovine serum (FBS, PAA Cell Culture Company, Yeovil, Somerset, UK). U89 MG and SNB-19 glioma cell lines were grown in DMEM (supplemented with penicillin 0.06 g l^−1, streptomycin 0.1 g l^−1 pH 7.0, 10% foetal bovine serum (FBS, PAA Cell Culture Company). HUVEC endothelial cells were grown in a special media (199 Media+HAMS F12), and supplemented with 20% heat-inactivated foetal calf serum, 1% Hepes, 1% Glutamine, 12.5 μg Human EGF, 625 ng of Human bFGF, 3750 units of Heparin, penicillin 0.06 g l^−1, and streptomycin 0.1 g l^−1) Only cultures with a plating efficiency of over 70% were used for analyses.
(§4) To evaluate intrinsic cytotoxicity and to evaluate the potentiation of toxicity of cytotoxic agents by APE1 inhibitors, MTS assays were performed as per the manufacturer's recommendation (Promega, Southampton, UK). Briefly, 2000 cells per well (in 200 μl of medium) were seeded into a 96-well plate. For HUVEC cells, 5 μl of 2% type 2 gelatine (Sigma) was added to the wells and the plates were preincubated for 20 min at 37°C before seeding of cells. For intrinsic cytotoxicity assessments, cells were incubated with varying concentrations of APE1 inhibitors and the MTS assay was performed on day 5. […] Non-radioactive cell proliferation assay was conducted as described previously.
A general note: Tetrazolium assays rely on reduction of a dye to a coloured formazan, in cell work by metabolically active cells.

The test system of series [3] is melanoma and glioma cell lines. The series can be described thus: MTS assay, intrinsic cytotoxicity. Type of series: cell-based. The settings on record: 120 h, MTS assay on day 5, read-out: GI50 (cell growth inhibition). As for the experimental part: as §3, §4

T2 sequence (P27695 whole entry): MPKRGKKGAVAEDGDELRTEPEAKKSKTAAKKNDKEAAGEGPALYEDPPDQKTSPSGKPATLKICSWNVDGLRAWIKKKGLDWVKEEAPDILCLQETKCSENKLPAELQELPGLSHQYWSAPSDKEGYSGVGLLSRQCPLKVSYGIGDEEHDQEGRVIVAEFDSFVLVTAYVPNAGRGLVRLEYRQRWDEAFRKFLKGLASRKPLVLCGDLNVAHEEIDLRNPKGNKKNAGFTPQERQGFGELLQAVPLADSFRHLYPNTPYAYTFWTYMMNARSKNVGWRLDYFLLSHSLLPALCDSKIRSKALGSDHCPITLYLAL
T3 sequence (P27695 whole entry): as above

On to `N#CC(C(=O)c1cc2ccccc2o1)c1nc2ccccc2s1` (stereo not shown) [Compound 7, 3-benzofuran-2-yl-2-benzothiazol-2-yl-3-oxo-propanenitrile], for which the “Endo IV inhibition” value at E. coli endonuclease IV is “complete inhibition and yes”; on E. coli endonuclease IV (listed as compound 7), “blocked endonuclease IV activity”. Moreover, in series [1] (30 ng HeLa WCE), the inhibition at 100 µM fell in the range of 50 to 75%. Moreover, on Human APE1, half-maximal inhibition (IC50) was put at 2 µM. For the same compound, in series [2], the “potentiation of cytotoxicity of alkylating agents” value (from here on “potentiation”) is recorded as “did not show any potentiation”. Further, in series [3], the GI50 stood at 40 µM.
On to `O=C(OCC(=O)N1NC(c2ccc3ccccc3c2)=CC1c1ccccc1)c1ccc([N+](=O)[O-])s1` (stereo not shown) [Compound 3, (3-(2-naphthyl)-5-phenyl-2,5-dihydropyrazol-1-yl) carbonylmethyl 5-nitrothiophene-2-carboxylate], for which the “inhibition of AP site cleavage in WCE assay” value was “no activity; also recorded: did not inhibit” in series [1] (100 μM) and “no effect” in series [1] (100 μM, listed as compound 3, 100 µM). Moreover, the IC50 against Human APE1 was found to be 3 µM. In series [2], the “potentiation” value is given as “did not shown any potentiation”. Besides, the GI50 in series [3] was 1 µM.
For the compound `O=C(COc1ccc2ccccc2c1)Nc1ccc(O)c(-c2nc3ccccc3o2)c1` [Compound 2, N-(3-benzooxazol-2-yl-4-hydroxy-phenyl)-2-(2-naphthyloxy)acetamide], the “Endo IV inhibition” value on E. coli endonuclease IV was “None”. Besides, in series [1] (30 ng HeLa WCE), the inhibition at 100 µM is 50 to 75%. The IC50 against Human APE1 came to 25 µM. Besides, the “potentiation” value in series [2] is listed as “Potentiation of cytotoxicity was also demonstrated”. Moreover, in series [3], the GI50 turned out to be 50 µM.
On to `O=C(CSc1nc2ccccc2s1)CSc1nc2ccccc2s1` [Compound 6, 1,3-bis(1,3-benzothiazol-2-ylthio)acetone], for which the “Endo IV inhibition” value on E. coli endonuclease IV is “None”. The “WCE Inhibition (whole-cell extracts AP site cleavage inhibition)” value in series [1] (100 μM, 30 ng HeLa WCE) is reported as “Strong”. Also, 3 µM corresponded to half-maximal inhibition at Human APE1 (IC50). Moreover, the “potentiation” value in series [2] is “Potentiation of cytotoxicity was also demonstrated”. The GI50 in series [3] stood at 50 µM.
With `O=C(O)c1cc2cc(F)ccc2[nH]1` [Compound 1, 5-fluoro-1H-indole-2-carboxylic acid], the “Endo IV inhibition” value at E. coli endonuclease IV is “None”. Besides, the inhibition at 100 µM in series [1] (30 ng HeLa WCE) is less than 50%. The IC50 against Human APE1 was found to be 10 µM. Also, the “potentiation” value in series [2] is listed as “not”. Also, the GI50 in series [3] is greater than 300 µM.
In the same order, the values of `O=C(CCCn1c(SCC(=O)Nc2nccs2)nc2ccsc2c1=O)NCc1ccc2c(c1)OCO2` [Compound 5, N-(benzo(1,3)dioxol-5-ylmethyl)-4-(2-oxo-4-(thiazol-2-ylcarbamoylmethylsulfanyl)-9-thia-3,5-diazabicyclo(4.3.0)nona-4,7,10-trien-3-yl)-butanamide] are “None”, 50 to 75%, 12 µM, “Potentiation of cytotoxicity was also demonstrated” and 14 µM.

By inhibition is commonly meant the drop in the measured response relative to a control, in per cent. Broadly, the IC50 is the point on the concentration scale where inhibition reaches its midpoint. A word on the GI50: it is the concentration that inhibits growth by half.
